For this data set, the system named is rodent lifetime carcinogenesis bioassay, tumor incidence TD50. The data set is described as follows: carcinogenic potency in animals, long-term in vivo studies, CPDB compilation (AID 1745844).
[1] abbreviates: mouse, strain ddNi, males, in feed, site: liver, lesion: adenoma-like tumor, dosed 160 weeks, study length 160 weeks.

Each structure is given as a SMILES string. Several values for one entry are separate records, joined by “and”; a condition that tells them apart may be missing. Identical values can stand only once. Activity calls are given as the source filed them. How the calls were made is not given here.

In general, TD50 refers to the dose at which the toxic effect under study appears in half of the subjects. On to `O=CCC=O`, for which the TD50 (mouse, strain B6C3F1, females, by gavage, site: any site (literature study), lesion: several types, types named in the paper, dosed 103 weeks, study length 104 weeks) was 274 mg/kg/day (inactive); the TD50 (mouse, strain B6C3F1, females, by gavage, site: liver, lesion: hepatocellular adenoma + hepatocellular carcinoma + neoplastic nodule, dosed 103 weeks, study length 104 weeks) came to 568 mg/kg/day; the TD50 (mouse, strain B6C3F1, females, by gavage, site: lung, lesion: alveolar/bronchiolar adenoma + alveolar/bronchiolar carcinoma, dosed 103 weeks, study length 104 weeks) stood at 4410 mg/kg/day; the TD50 (mouse, strain B6C3F1, males, by gavage, site: any site (literature study), lesion: several types, types named in the paper, dosed 103 weeks, study length 104 weeks) is 217 mg/kg/day (inactive); the TD50 (mouse, strain B6C3F1, males, by gavage, site: liver, lesion: hepatocellular adenoma + hepatocellular carcinoma + neoplastic nodule, dosed 103 weeks, study length 104 weeks) came out at 230 mg/kg/day; the TD50 (mouse, strain B6C3F1, males, by gavage, site: lung, lesion: alveolar/bronchiolar adenoma + alveolar/bronchiolar carcinoma, dosed 103 weeks, study length 104 weeks) is 1130 mg/kg/day. Also, the TD50 by setting is: (mouse, strain Swiss, females, in drinking water, site: liver, lesion: hemangioma, dosed 52 weeks, study length 52 weeks) 24.8 mg/kg/day; (mouse, strain Swiss, females, in drinking water, site: liver, lesion: hepatoma, dosed 52 weeks, study length 52 weeks) 4.62 mg/kg/day; (mouse, strain Swiss, females, in drinking water, site: liver, lesion: hyperplastic nodule, dosed 52 weeks, study length 52 weeks) 44.3 mg/kg/day; (mouse, strain Swiss, females, in drinking water, site: liver, lesion: several types, types named in the paper, dosed 52 weeks, study length 52 weeks) 14.1 mg/kg/day; (rat, strain Fischer 344, females, by gavage, site: any site (literature study), lesion: several types, types named in the paper, dosed 103 weeks, study length 104 weeks) 164 mg/kg/day; (rat, strain Fischer 344, females, by gavage, site: liver, lesion: hepatocellular adenoma + hepatocellular carcinoma + neoplastic nodule, dosed 103 weeks, study length 104 weeks) 1950 mg/kg/day. Further, the TD50 was 252 mg/kg/day (rat, strain Fischer 344, females, by gavage, site: thyroid gland, lesion: follicular-cell adenoma + follicular-cell carcinoma, dosed 103 weeks, study length 104 weeks); 566 mg/kg/day (rat, strain Fischer 344, males, by gavage, site: adrenal gland, lesion: cortical adenoma, dosed 103 weeks, study length 104 weeks); 184 mg/kg/day (rat, strain Fischer 344, males, by gavage, site: adrenal medulla, lesion: pheochromocytoma, dosed 103 weeks, study length 104 weeks); 41.8 mg/kg/day (rat, strain Fischer 344, males, by gavage, site: any site (literature study), lesion: several types, types named in the paper, dosed 103 weeks, study length 104 weeks); 665 mg/kg/day (rat, strain Fischer 344, males, by gavage, site: liver, lesion: hepatocellular adenoma + hepatocellular carcinoma + neoplastic nodule, dosed 103 weeks, study length 104 weeks); 67.7 mg/kg/day (rat, strain Fischer 344, males, by gavage, site: pancreatic islets + thyroid gland, lesion: islet-cell adenoma + follicular-cell adenoma + follicular-cell carcinoma, dosed 103 weeks, study length 104 weeks). Also, the TD50 is, setting by setting: (rat, strain Fischer 344, males, by gavage, site: pancreatic islets, lesion: islet-cell adenoma + islet-cell carcinoma, dosed 103 weeks, study length 104 weeks) 90.3 mg/kg/day; (rat, strain Fischer 344, males, by gavage, site: pancreatic islets, lesion: islet-cell adenoma, dosed 103 weeks, study length 104 weeks) 80.5 mg/kg/day; (rat, strain Fischer 344, males, by gavage, site: subcutaneous tissue, lesion: fibrosarcoma + fibroma, dosed 103 weeks, study length 104 weeks) 195 mg/kg/day; (rat, strain Fischer 344, males, by gavage, site: testis, lesion: interstitial-cell tumor, dosed 103 weeks, study length 104 weeks) 39.8 mg/kg/day; (rat, strain Fischer 344, males, by gavage, site: thyroid gland, lesion: follicular-cell adenoma + follicular-cell carcinoma, dosed 103 weeks, study length 104 weeks) 113 mg/kg/day; (rat, strain Fischer 344, males, by gavage, site: thyroid gland, lesion: follicular-cell adenoma, dosed 103 weeks, study length 104 weeks) 206 mg/kg/day. Further, for the setting “rat, strain Fischer 344, males, by gavage, site: thyroid gland, lesion: follicular-cell carcinoma, dosed 103 weeks, study length 104 weeks”, the TD50 worked out at 236 mg/kg/day. Moreover, the carcinogen call (mouse, strain Swiss, females, in drinking water, site: lung, lesion: adenoma, dosed 52 weeks, study length 52 weeks) was “negative (inactive)”.

For the compound `COc1ccc(OC)c(/C=C/c2ccc(N)cc2)c1`, the TD50 (mouse, strain CD-1 HaM/ICR, females, in feed, site: any site (literature study), lesion: several types, types named in the paper, dosed 77 weeks, study length 90 weeks) is 118 mg/kg/day (inactive); the TD50 (mouse, strain CD-1 HaM/ICR, females, in feed, site: lung, lesion: several types, types named in the paper, dosed 77 weeks, study length 90 weeks) was 152 mg/kg/day (inactive); the TD50 (mouse, strain CD-1 HaM/ICR, males, in feed, site: any site (literature study), lesion: several types, types named in the paper, dosed 77 weeks, study length 90 weeks) came to 126 mg/kg/day; the TD50 (mouse, strain CD-1 HaM/ICR, males, in feed, site: liver, lesion: hepatoma, dosed 77 weeks, study length 90 weeks) was 376 mg/kg/day; the TD50 (mouse, strain CD-1 HaM/ICR, males, in feed, site: liver, lesion: several types, types named in the paper, dosed 77 weeks, study length 90 weeks) amounted to 329 mg/kg/day; the TD50 (mouse, strain CD-1 HaM/ICR, males, in feed, site: lung, lesion: several types, types named in the paper, dosed 77 weeks, study length 90 weeks) was 95.9 mg/kg/day and 115 mg/kg/day. The TD50 (rat, strain Charles River CD (Sprague-Dawley), males, in feed, site: any site (literature study), lesion: several types, types named in the paper, dosed 47 weeks, study length 51 weeks) came to 0.269 mg/kg/day; the TD50 (rat, strain Charles River CD (Sprague-Dawley), males, in feed, site: ear, lesion: several types, types named in the paper, dosed 47 weeks, study length 51 weeks) is 1.45 mg/kg/day and 1.54 mg/kg/day; the TD50 (rat, strain Charles River CD (Sprague-Dawley), males, in feed, site: liver, lesion: several types, types named in the paper, dosed 47 weeks, study length 51 weeks) was determined as 2.61 mg/kg/day; the TD50 (rat, strain Charles River CD (Sprague-Dawley), males, in feed, site: skin, lesion: several types, types named in the paper, dosed 47 weeks, study length 51 weeks) is 1.48 mg/kg/day; the TD50 (rat, strain Charles River CD (Sprague-Dawley), males, in feed, site: small intestine, lesion: several types, types named in the paper, dosed 47 weeks, study length 51 weeks) is 0.866 mg/kg/day; the TD50 (rat, strain Charles River CD (Sprague-Dawley), males, in feed, site: stomach, lesion: several types, types named in the paper, dosed 47 weeks, study length 51 weeks) is 0.721 mg/kg/day. Also, the carcinogen call (mouse, strain CD-1 HaM/ICR, females, in feed, site: liver, lesion: several types, types named in the paper, dosed 77 weeks, study length 90 weeks) was “negative (inactive)”.

Consider `Cc1cc(O)c2c(c1O)C(=O)C13C(=C2O)C(=O)C2C(O)C1C1C(O)C3C(=O)C3=C(O)c4c(O)cc(C)c(O)c4C(=O)C321` (centres undefined), for which the TD50 (mouse, strain ddNi, females, in feed, site: liver, lesion: liver-cell adenoma, dosed 160 weeks, study length 160 weeks) was 122 mg/kg/day; the TD50 (mouse, strain ddNi, females, in feed, site: liver, lesion: liver-cell carcinoma, dosed 160 weeks, study length 160 weeks) was 248 mg/kg/day; the TD50 (mouse, strain ddNi, females, in feed, site: liver, lesion: several types, types named in the paper, dosed 160 weeks, study length 160 weeks) was 79.4 mg/kg/day; the TD50 under setting [1] is 113 mg/kg/day; the TD50 (mouse, strain ddNi, males, in feed, site: liver, lesion: hepatoma, dosed 160 weeks, study length 160 weeks) is 89.5 mg/kg/day and 74.3 mg/kg/day and 113 mg/kg/day; the TD50 (mouse, strain ddNi, males, in feed, site: liver, lesion: liver-cell adenoma, dosed 160 weeks, study length 160 weeks) was 83.7 mg/kg/day and 25.1 mg/kg/day and 231 mg/kg/day. Besides, the TD50 by setting is: (mouse, strain ddNi, males, in feed, site: liver, lesion: liver-cell carcinoma, dosed 160 weeks, study length 160 weeks) 332 mg/kg/day; (mouse, strain ddNi, males, in feed, site: liver, lesion: several types, types named in the paper, dosed 160 weeks, study length 160 weeks) 14.8 mg/kg/day. The carcinogen call under setting [1] was “positive”.

In the case of `C=CN1CCCC1=O`, the TD50 is, setting by setting: (rat, strain Charles River CD (Sprague-Dawley), females, inhaled, site: any site (literature study), lesion: malignant tumor, dosed 104 weeks, study length 104 weeks) 6.12 mg/kg/day; (rat, strain Charles River CD (Sprague-Dawley), females, inhaled, site: larynx, lesion: squamous-cell carcinoma, dosed 104 weeks, study length 104 weeks) 120 mg/kg/day; (rat, strain Charles River CD (Sprague-Dawley), females, inhaled, site: liver, lesion: hepatocellular carcinoma, dosed 104 weeks, study length 104 weeks) 12.3 mg/kg/day; (rat, strain Charles River CD (Sprague-Dawley), females, inhaled, site: nasal cavity, olfactory epithelium, lesion: adenocarcinoma, dosed 104 weeks, study length 104 weeks) 120 mg/kg/day; (rat, strain Charles River CD (Sprague-Dawley), females, inhaled, site: nasal cavity, respiratory epithelium, lesion: adenoma, dosed 52 weeks, study length 52 weeks) 19.8 mg/kg/day; (rat, strain Charles River CD (Sprague-Dawley), females, inhaled, site: nasal cavity, respiratory epithelium, lesion: adenoma, dosed 104 weeks, study length 104 weeks) 20.4 mg/kg/day. In addition, the TD50 reads like this: (rat, strain Charles River CD (Sprague-Dawley), males, inhaled, site: any site (literature study), lesion: malignant tumor, dosed 104 weeks, study length 104 weeks) 5 mg/kg/day; (rat, strain Charles River CD (Sprague-Dawley), males, inhaled, site: any site (literature study), lesion: several types, types named in the paper, dosed 104 weeks, study length 104 weeks) 1.99 mg/kg/day; (rat, strain Charles River CD (Sprague-Dawley), males, inhaled, site: larynx, lesion: squamous-cell carcinoma, dosed 104 weeks, study length 104 weeks) 84 mg/kg/day; (rat, strain Charles River CD (Sprague-Dawley), males, inhaled, site: liver, lesion: hepatocellular carcinoma, dosed 104 weeks, study length 104 weeks) 12 mg/kg/day; (rat, strain Charles River CD (Sprague-Dawley), males, inhaled, site: nasal cavity, olfactory epithelium, lesion: adenocarcinoma, dosed 104 weeks, study length 104 weeks) 32.9 mg/kg/day; (rat, strain Charles River CD (Sprague-Dawley), males, inhaled, site: nasal cavity, respiratory epithelium, lesion: adenoma, dosed 52 weeks, study length 52 weeks) 8.56 mg/kg/day. Moreover, the TD50 (rat, strain Charles River CD (Sprague-Dawley), males, inhaled, site: nasal cavity, respiratory epithelium, lesion: adenoma, dosed 104 weeks, study length 104 weeks) was 11.7 mg/kg/day.

For `C[C@]12C=CC(=O)C=C1CC[C@@H]1[C@@H]2[C@@H](O)C[C@@]2(C)[C@H]1CC[C@]2(O)C(=O)CO`, the TD50 reads like this: (rat, strain Charles River CD (Sprague-Dawley), males, in drinking water, site: liver, lesion: hepatocellular adenoma, dosed 104 weeks, study length 104 weeks) 2.16 mg/kg/day; (rat, strain Charles River CD (Sprague-Dawley), males, in drinking water, site: liver, lesion: hepatocellular carcinoma, dosed 104 weeks, study length 104 weeks) 6.58 mg/kg/day; (rat, strain Charles River CD (Sprague-Dawley), males, in drinking water, site: liver, lesion: several types, types named in the paper, dosed 104 weeks, study length 104 weeks) 1.53 mg/kg/day; (rat, strain Sprague-Dawley, females, by gavage, site: any site (literature study), lesion: benign tumor, dosed 78 weeks, study length 104 weeks) 1.96 mg/kg/day (inactive). Further, where the note is “rat, strain Sprague-Dawley, females, by gavage, site: any site (literature study), lesion: malignant tumor, dosed 78 weeks, study length 104 weeks”, the carcinogen call is “negative (inactive)”.

Regarding `Nc1ccc(Oc2ccc(N)c(N)c2)cc1`, the TD50 (mouse, strain ICR/Jcl, males, in feed, site: liver, lesion: hepatoma, dosed 52 weeks, study length 52 weeks) was 13.3 mg/kg/day.

On to `CCC1C(=O)OCC1Cc1cncn1C` (centres undefined), for which the TD50 is 98.4 mg/kg/day (inactive) (rat, strain Sprague-Dawley, females, i.p., site: any site (literature study), lesion: malignant tumor, dosed 104 weeks, study length 104 weeks) and 1750 mg/kg/day (inactive) (rat, strain Sprague-Dawley, males, i.p., site: any site (literature study), lesion: malignant tumor, dosed 104 weeks, study length 104 weeks).
